This test has as its system human skin. The test can be described thus: activity by topical application. It counts as in vivo. The text has this:
The object of the present invention is the discovery that this peptide, and above all the lipophile derivatives of the peptide, have a calming, antalgic activity when applied to the human skin in a suitable cosmetic or dermopharmaceutical preparation.

As to `N=C(N)NCCC[C@H](NC(=O)[C@@H](N)Cc1ccc(O)cc1)C(=O)O` [H-L-Tyr-L-Arg-OH], the “activity by topical application” value is recorded as “only a slight activity”.

The record behind these values is patent publication US6372717B1, “Synthetic peptides and their use in cosmetic or dermopharmaceutical compositions” (Sederma S.A., priority 1999, dated 2002).
